According to US10940110B2, “Method and system for the treatment of chronic COPD with nebulized anticholinergic administrations” (Sunovion Respiratory Development Inc., priority 2008, dated 2021):

System: patients with COPD
Conditions: 200 μg
[1] = high efficiency nebulizer, 24 hour time point

Description: GIS 200 μg/0.5 mL oral inhalation via eFlow.
GIS 75 μg/0.5 mL oral inhalation via eFlow; 2. GIS 500 μg/0.5 mL oral; 3. GIS 1000 n/0.5 mL oral inhalation via eFlow.
The primary efficacy variable was serial spirometry throughout the 36 hour period after dosing. The spirometry assessments include forced expiratory volume in one second (FEV1), forced vital capacity (FVC), peak expiratory flow rate (PEFR), FEV1% of predicted normal.

SMILES: C[N+]1(C)CCC(OC(=O)C(O)(c2ccccc2)C2CCCC2)C1 (centres unmarked) [glycopyrrolate, 3-[(cyclopentylhydroxyphenylacetyl)oxy]-1,1-dimethylpyrrolidinium]
- increase in FEV1 above baseline (% change from baseline) (conventional jet nebulizer, 12 hr time point and beyond): ≤ 10%
- increase in FEV1 above baseline (conventional jet nebulizer, any time point after 12 hr): ≤ 100 mL
- mean improvement in peak lung function (peak FEV1) compared to the same dose in the conventional jet nebulizer (high efficiency nebulizer vs conventional jet nebulizer): about 45 mL
- improvement in FEV1 above baseline (% change from baseline) [1]: greater than 10%
- improvement in lung function, FEV1 above baseline [1]: greater than 100 mL
